Assay results: the supplement of paper PMC10733146

Key:
Assay in all cases: viability relative to DMSO control (fraction); higher = less drug effect (more viable cells)
Settings in all cases: 48 h
[1] = tested on: primary AML patient cells (S021)
Method in brief: (§1)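 Viability is given as CellTiter-Glo luminescence relative to the median of 16 inner DMSO wells. Fresh or cryopreserved primary mononuclear tumour cells from blood, bone marrow (both Ficoll-isolated) or processed lymph node were plated at 4 × 10^4 cells per well in 384-well plates against five pre-plated compound concentrations, one well each. Incubation lasted 48 h at 37 °C and 5% CO2 in RPMI-1640 with penicillin/streptomycin, L-glutamine and human serum.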

[2] = tested on: primary AML patient cells (S060)
Method in brief: as §1

[3] = tested on: primary AML patient cells (S009)
Method in brief: as §1

[4] = tested on: primary AML patient cells (S081)
Method in brief: as §1

[5] = tested on: primary AML patient cells (S089)
Method in brief: as §1

[6] = tested on: primary AML patient cells (S071)
Method in brief: as §1

[7] = tested on: primary AML patient cells (S017)
Method in brief: as §1

[8] = tested on: primary MCL patient cells (S068)
Method in brief: as §1

[9] = tested on: primary AML patient cells (S025)
Method in brief: as §1

[10] = tested on: primary AML patient cells (S002)
Method in brief: as §1

[11] = tested on: primary AML patient cells (S072)
Method in brief: as §1

[12] = tested on: primary B-PLL patient cells (S016)
Method in brief: as §1

[13] = tested on: primary BL patient cells (S005)
Method in brief: as §1

[14] = tested on: primary DLBCL patient cells (S082)
Method in brief: as §1

[15] = tested on: primary MCL patient cells (S053)
Method in brief: as §1

[16] = tested on: primary AML patient cells (S055)
Method in brief: as §1

[17] = tested on: primary AML patient cells (S037)
Method in brief: as §1

[18] = tested on: primary AML patient cells (S091)
Method in brief: as §1

[19] = tested on: primary T-PLL patient cells (S008)
Method in brief: as §1

[20] = tested on: primary CLL patient cells (S043)
Method in brief: as §1

Compound: O=C(Nc1cccc(C(F)(F)F)c1)Nc1cc(S(=O)(=O)NC2CC2)ccc1-c1ccsc1 [AGI-6780]
- viability ([1]; 0.024 µM): 0.881
- viability ([1]; 0.12 µM): 0.894
- viability ([1]; 0.6 µM): 0.878
- viability ([1]; 3 µM): 0.891
- viability ([1]; 15 µM): 0.676
- viability ([2]; 0.024 µM): 0.963
- viability ([2]; 0.12 µM): 1
- viability ([2]; 0.6 µM): 0.991
- viability ([2]; 3 µM): 0.886
- viability ([2]; 15 µM): 0.91
- viability ([3]; 0.024 µM): 0.807
- viability ([3]; 0.12 µM): 0.796
- viability ([3]; 0.6 µM): 0.875
- viability ([3]; 3 µM): 0.834
- viability ([3]; 15 µM): 0.749
- viability ([4]; 0.024 µM): 0.829
- viability ([4]; 0.12 µM): 0.956
- viability ([4]; 0.6 µM): 0.878
- viability ([4]; 3 µM): 0.756
- viability ([4]; 15 µM): 0.841
- viability ([5]; 0.024 µM): 0.717
- viability ([5]; 0.12 µM): 0.925
- viability ([5]; 0.6 µM): 0.822
- viability ([5]; 3 µM): 0.84
- viability ([5]; 15 µM): 0.637
- viability ([6]; 0.024 µM): 0.803
- viability ([6]; 0.12 µM): 0.828
- viability ([6]; 0.6 µM): 0.826
- viability ([6]; 3 µM): 0.78
- viability ([6]; 15 µM): 0.607
- viability ([7]; 0.024 µM): 0.881
- viability ([7]; 0.12 µM): 0.938
- viability ([7]; 0.6 µM): 0.919
- viability ([7]; 3 µM): 0.908
- viability ([7]; 15 µM): 0.982
- viability ([8]; 0.024 µM): 0.751
- viability ([8]; 0.12 µM): 0.809
- viability ([8]; 0.6 µM): 0.786
- viability ([8]; 3 µM): 0.722
- viability ([8]; 15 µM): 0.798
- viability ([9]; 0.024 µM): 0.949
- viability ([9]; 0.12 µM): 1.06
- viability ([9]; 0.6 µM): 0.978
- viability ([9]; 3 µM): 0.905
- viability ([9]; 15 µM): 0.839
- viability ([10]; 0.024 µM): 0.785
- viability ([10]; 0.12 µM): 0.822
- viability ([10]; 0.6 µM): 0.816
- viability ([10]; 3 µM): 0.798
- viability ([10]; 15 µM): 0.689
- viability ([11]; 0.024 µM): 0.98
- viability ([11]; 0.12 µM): 0.904
- viability ([11]; 0.6 µM): 0.884
- viability ([11]; 3 µM): 0.764
- viability ([11]; 15 µM): 0.769
- viability ([12]; 0.024 µM): 0.776
- viability ([12]; 0.12 µM): 0.947
- viability ([12]; 0.6 µM): 0.954
- viability ([12]; 3 µM): 0.851
- viability ([12]; 15 µM): 0.981
- viability ([13]; 0.024 µM): 0.818
- viability ([13]; 0.12 µM): 0.915
- viability ([13]; 0.6 µM): 0.932
- viability ([13]; 3 µM): 0.778
- viability ([13]; 15 µM): 0.886
- viability ([14]; 0.024 µM): 0.796
- viability ([14]; 0.12 µM): 0.96
- viability ([14]; 0.6 µM): 0.91
- viability ([14]; 3 µM): 0.905
- viability ([14]; 15 µM): 0.983
- viability ([15]; 0.024 µM): 0.741
- viability ([15]; 0.12 µM): 0.807
- viability ([15]; 0.6 µM): 0.851
- viability ([15]; 3 µM): 0.788
- viability ([15]; 15 µM): 0.88
- viability ([16]; 0.024 µM): 0.912
- viability ([16]; 0.12 µM): 0.919
- viability ([16]; 0.6 µM): 0.874
- viability ([16]; 3 µM): 0.859
- viability ([16]; 15 µM): 0.85
- viability ([17]; 0.024 µM): 0.971
- viability ([17]; 0.12 µM): 1.02
- viability ([17]; 0.6 µM): 0.955
- viability ([17]; 3 µM): 0.877
- viability ([17]; 15 µM): 0.889
- viability ([18]; 0.024 µM): 1.02
- viability ([18]; 0.12 µM): 1.05
- viability ([18]; 0.6 µM): 0.975
- viability ([18]; 3 µM): 0.989
- viability ([18]; 15 µM): 0.924
- viability ([19]; 0.024 µM): 0.865
- viability ([19]; 0.12 µM): 0.979
- viability ([19]; 0.6 µM): 0.937
- viability ([19]; 3 µM): 0.863
- viability ([19]; 15 µM): 0.825
- viability ([20]; 0.024 µM): 0.927
- viability ([20]; 0.12 µM): 1.05
- viability ([20]; 0.6 µM): 0.988
- viability ([20]; 3 µM): 0.905
- viability ([20]; 15 µM): 0.935
